We go through ten compounds from PubChem BioAssay (NCI).

Test systems include UACC-62 melanoma; T-47D breast; OVCAR-5 ovarian; RXF 393 renal; SF-268 CNS; EKVX NSCLC; KM12 colon; OVCAR-3 ovarian; HCC-2998 colon; RPMI-8226 leukemia.
What all share (test): NCI anticancer screen, dose series, 48 h

Values joined by “and” are separate entries in the source; they are usually repeats but may differ in a detail not shown here. Identical values can stand only once.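 How tested: cells in 96-well plates exposed to compound for 48 hours at five concentrations. GI50 = concentration required for 50% inhibition of growth. The concentration for full growth arrest is given as TGI.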

For the compound `COc1cc2cc3c(c(O)c2c(O)c1-c1c(OC)cc2cc4c(c(O)c2c1O)C(=O)O[C@H](C)C4)C(=O)O[C@H](C)C3`, the GI50 in the assay on UACC-62 melanoma was 17.1 µM; in the assay with T-47D breast it was 23.3 µM; in the assay with OVCAR-5 ovarian, 94.2 µM; with RXF 393 renal, 24.4 µM; in the assay with SF-268 CNS, 14.1 µM; with EKVX NSCLC it was 16.2 µM. Further, the GI50 with KM12 colon is 38.8 µM; in the assay with OVCAR-3 ovarian, 21.2 µM; in the assay on HCC-2998 colon, 33 µM. The TGI in the assay with UACC-62 melanoma is 32.5 µM; in the assay on T-47D breast it was 57.2 µM; in the assay on OVCAR-5 ovarian, greater than 100 µM; in the assay on RXF 393 renal, greater than 100 µM; in the assay on SF-268 CNS it was 37.9 µM; with EKVX NSCLC it was 63.9 µM. Also, the TGI is greater than 100 µM with KM12 colon, 48.4 µM in the assay on OVCAR-3 ovarian and greater than 100 µM in the assay on HCC-2998 colon.
Turning to `c1cncc(C2ONC3=NCCN32)c1` (centres undefined), the GI50 in the assay on UACC-62 melanoma is 46.7 µM; in the assay on T-47D breast, 40 µM; in the assay on OVCAR-5 ovarian, 58.3 µM; in the assay on RXF 393 renal, 20.9 µM; in the assay on SF-268 CNS it was 21.7 µM; with EKVX NSCLC it was 23.2 µM. The GI50 in the assay with KM12 colon is 21.2 µM; in the assay with OVCAR-3 ovarian, 2.86 µM; in the assay on HCC-2998 colon, 27.1 µM. Moreover, the TGI was greater than 100 µM with UACC-62 melanoma; greater than 100 µM with T-47D breast; greater than 100 µM in the assay on OVCAR-5 ovarian; 96.3 µM in the assay on RXF 393 renal; greater than 100 µM with SF-268 CNS; greater than 100 µM in the assay with EKVX NSCLC. The figures for the TGI with KM12 colon, in the assay on OVCAR-3 ovarian and in the assay on HCC-2998 colon were greater than 100 µM, 27.8 µM and 94.5 µM, respectively.
Take `O=CC1=CCC2c3[nH]c4ccccc4c3CCN2C1` (centres undefined): the TGI in the assay with UACC-62 melanoma, in the assay on OVCAR-5 ovarian, with RXF 393 renal, in the assay on RPMI-8226 leukemia, in the assay on SF-268 CNS and in the assay on EKVX NSCLC was greater than 396 µM in each case. Also, the values for the TGI with KM12 colon, with OVCAR-3 ovarian and in the assay on HCC-2998 colon were 153 µM, 314 µM and 253 µM, respectively.
For `CC1=CCN(c2ccccn2)OC1c1ccccc1` (centres undefined), the TGI in the assay with UACC-62 melanoma, with OVCAR-5 ovarian, in the assay on RXF 393 renal, with RPMI-8226 leukemia, in the assay on SF-268 CNS and in the assay on EKVX NSCLC was greater than 100 µM in each case. The TGI in the assay with KM12 colon, with OVCAR-3 ovarian and with HCC-2998 colon was greater than 100 µM in each case.
For the compound `CC(=O)OCC1OC(n2c(=S)n(-c3ccccc3)c(=O)c3cc(Br)cc(Br)c32)C(OC(C)=O)C(OC(C)=O)C1OC(C)=O` (centres undefined), the TGI is greater than 100 µM in the assay on UACC-62 melanoma; greater than 100 µM in the assay on OVCAR-5 ovarian; 76.3 µM and > 100 µM in the assay on RXF 393 renal; greater than 100 µM in the assay with RPMI-8226 leukemia; greater than 100 µM in the assay with SF-268 CNS; greater than 100 µM in the assay with EKVX NSCLC. Moreover, the TGI in the assay on KM12 colon, with OVCAR-3 ovarian and with HCC-2998 colon was greater than 100 µM each time. The GI50 in the assay on RXF 393 renal was 19.4 µM and 64.2 µM; in the assay with RPMI-8226 leukemia, 33.3 µM; in the assay on SF-268 CNS it was 35.2 µM and 94.8 µM; with OVCAR-3 ovarian, 47.4 µM and > 100 µM.
On to `CC1CC(C)C(C(O)CC2CC(=O)N(c3ccccc3)C(=O)C2)C(O)C1` (centres undefined), for which the TGI in the assay with UACC-62 melanoma, in the assay with OVCAR-5 ovarian, in the assay with RXF 393 renal, with RPMI-8226 leukemia, in the assay with SF-268 CNS and with EKVX NSCLC was greater than 100 µM each time. Besides, the TGI in the assay on KM12 colon, with OVCAR-3 ovarian and with HCC-2998 colon was greater than 100 µM in each case.
`C/C(CC(=O)Nc1cccc([N+](=O)[O-])c1)=N\NC(=O)C[n+]1ccccc1`: the TGI with UACC-62 melanoma, with OVCAR-5 ovarian, in the assay on RXF 393 renal, in the assay with RPMI-8226 leukemia, in the assay with SF-268 CNS and in the assay with EKVX NSCLC was greater than 100 µM throughout. Besides, the TGI in the assay on KM12 colon, in the assay with OVCAR-3 ovarian and in the assay with HCC-2998 colon was greater than 100 µM each time.
For `O=C(O)Cn1ccc(=O)c2cc([N+](=O)[O-])ccc21`, the TGI in the assay with UACC-62 melanoma, in the assay with T-47D breast, in the assay on OVCAR-5 ovarian, in the assay on SF-268 CNS, in the assay with KM12 colon and in the assay with OVCAR-3 ovarian was greater than 100 µM in each case. The compound also returned a TGI in the assay with HCC-2998 colon greater than 100 µM.
On to `COc1ccc(-c2cc(-c3ccccc3)nc(NCCNc3ccnc4cc(Cl)ccc34)n2)cc1`, for which the GI50 in the assay with UACC-62 melanoma is 1.84 µM; in the assay with T-47D breast, 0.812 µM; in the assay on OVCAR-5 ovarian, 1.76 µM; in the assay with SF-268 CNS, 1.78 µM; in the assay with EKVX NSCLC, 1.79 µM; in the assay on KM12 colon it was 1.84 µM. Further, the GI50 in the assay with OVCAR-3 ovarian was 1.82 µM. The TGI is 3.52 µM with UACC-62 melanoma; 2.61 µM in the assay with T-47D breast; 3.3 µM in the assay on OVCAR-5 ovarian; 3.62 µM in the assay on SF-268 CNS; 3.59 µM in the assay with EKVX NSCLC; 3.52 µM in the assay with KM12 colon. The same compound had a TGI in the assay with OVCAR-3 ovarian of 3.39 µM.
For `Nc1ncnc2c1nc(Cl)n2C1OC(CO)C(O)C1O` (centres undefined), the TGI in the assay on UACC-62 melanoma was greater than 100 µM; with T-47D breast, 8.15 µM; in the assay with OVCAR-5 ovarian it was 98.6 µM; in the assay on RXF 393 renal it was 4.29 µM; with SF-268 CNS it was greater than 100 µM; in the assay on EKVX NSCLC, greater than 71.1 µM. For the same compound, the TGI in the assay with KM12 colon and with OVCAR-3 ovarian was greater than 100 µM each time.
